Tests used:
[1] = tested on: erythroid progenitors; experiment: Colony formation assay (CFA), cord blood LDMNC: erythroid progenitor colonies overall; assay type: cell-based, human; settings: for growth of erythroid progenitor colonies in the absence of Epo: 0 U/ml Epo; for size and colour of erythroid colonies: 2 and 0.2 U/ml Epo, ambient or 5% O2, 1.0 mg/ml HAo or HEMOLINK, 100 μM hemin, day 14
Experimental: This technique, referred to as the colony formation assay (CFA), is the most widely used biological assay to identify and enumerate erythroid progenitors present in hematopoietic tissue such as blood and bone marrow. Cell populations containing erythroid progenitors are plated in semi-solid suspensions of methyl cellulose, agar, low melting agarose or related substances in nutrient culture medium containing 1-3 U/ml Epo and 10 ng/ml IL-3 to specifically stimulate erythroid progenitors. Plates are incubated at 37° C. for 14 days during which time the erythroid progenitors form characteristic hemoglobinized (red) colonies. Two distinct but related erythroid progenitors can be distinguished based on colony size and morphology: BFU-E, the most primitive recognizable erythroid progenitor forms large multilobular colonies whereas the more mature CFU-E forms smaller spherical colonies.
Adult hemoglobin was purified according to U.S Pat. Nos. 5,439,591 and 5,545,328 to obtain HAo and HEMOLINK™ was prepared from HAo according to U.S. Pat. No. 5,532,352. Human umbilical cord blood intended for discard was collected from the umbilical vein of placentas immediately postpartum into 10 ml vacutainer tubes containing 143 USP units/ml sodium heparin. Low density mononuclear cells were separated from red blood cells by centrifugation over a 1.077 g/ml density gradient Cells removed from the plasma/density gradient interface were incubated overnight in a tissue culture flask with 10 ml cell culture medium containing 10% fetal bovine serum, and non-adherent LDMNC were further purified with an additional density gradient step. The LDMNC were then plated into colony formation assays (CFA) on the second day of isolation. In the CFA, LDMNC were plated at a density of 1×10^5 cells/ml in Iscoves modified Dulbeccos cell culture medium containing 0.8% methyl-cellulose, 30% fetal bovine serum, 1% bovine serum albumin, 0.1 mM 2-mercaptoethanol and 2 mM L-glutamine. Unless indicated otherwise, under standard CFA conditions 2 U/ml Epo and 10 ng/ml IL-3 are added to the formulation to stimulate hematopoietic progenitor growth, specifically BFU-E, CFU-E and CFU-GM.
Each condition was tested in duplicate in from 2-18 independent experiments. Cultures were maintained in a humidified incubator at 37° C., 5% CO2 and ambient oxygen tensions. The number of hematopoietic progenitors was scored between days 13-15 by counting the number and types of colonies present.
Erythroid progenitor colony formation assays were conducted as described in Example 1 except that cultures were incubated at either ambient oxygen tensions (˜20% O2) or 5% O2. The reduced oxygen tension of 5% O2 approximates the physiological intravascular oxygen tension in mammals. The mean fold increase in cord blood BFU-E, CFU-E and CFU-GM progenitor number at 5% O2 produced by 1.0 mg/ml HAo (15.6 μM; n=11) or HEMOLINK™ (15.6 μM; n=6), 100 μM hemin (n=10), 250 μM FeCl3 (n=6) or no addition (n=17-18), is shown FIG. 2. Results are expressed relative to control cells treated only with respective vehicles and cultured at ambient oxygen tensions (˜20% O2; fold expansion=1.0; *p<0.05, **p<0.01).
Erythroid progenitor colony formation assays were conducted as described in Example 1 except that cultures were initiated in the presence of Epo concentrations ranging from 0-2 U/ml. The mean fold increase in cord blood BFU-E, CFU-E and CFU-GM progenitor number produced by 1.0 mg/ml HAo (15.6 μM; n=9) or HEMOLINK™ (15.6 μM; n=6), 100 μM hemin (n=8), 250 μM FeCl3 (n=6), or no addition (n=9-10) in the presence of reduced Epo concentrations (0.2 U/ml) is shown in FIG. 3. Cultures were maintained at ambient oxygen tensions (˜20% O2) for 14 days. Results are expressed relative to control cells at 2 U/ml Epo treated only with the respective vehicles (solid line at fold expansion=1.0; *p<0.05, **p<0 01). Erythroid progenitor colonies were undetectable in the absence of Epo. […]

[2] = tested on: BFU-E; experiment: Colony formation assay, adult peripheral blood LDMNC: BFU-E; assay type: cell-based, human; settings: for fold increase in BFU-E, adult blood, 0.2 U/ml Epo: ~20% O2, compared to untreated controls (no addition) at 0.2 U/ml Epo
Experimental: Blood was collected with informed consent from the antecubital vein of healthy adult human volunteers into vacutainers containing 143 USP U/ml sodium heparin. Low density mononuclear cells (LDMNC) were isolated by centrifugation over a density gradient as described in Example 1. Plastic adherent cells were removed by an overnight incubation in a tissue culture flask and the non-adherent cells were placed directly in a CFA. Conditions for the CFA are similar to those described in Examples 1-4.
The mean fold increase in adult blood BFU-E, CFU-E and CFU-GM progenitor number produced by 1.0 mg/ml HAo (15.6 μM) or HEMOLINK™ (15.6 μM), 100 μM hemin or 250 μM FeCl3 is shown in FIG. 9 (n=3). Cultures were maintained at ambient oxygen tensions (˜20% O2) for 14 days. The fold increase in colonies is expressed relative to control cells treated only with the respective vehicles. […] The magnitude of this increase was greater for adult than cord blood LDMNC.
The mean fold increase in adult blood BFU-E, CFU-E and CFU-GM progenitor number at 5% O2 is shown in FIG. 10 with the same additives. Results are expressed relative to control cells treated only with the respective vehicles and cultured at ambient oxygen tensions (˜20% O2). Reduced oxygen tensions (5% O)2 enhanced the growth of BFU-E which was further increased by the addition of HAo, HEMOLINK™, hemin or FeCl3. All agents stimulated a similar increase in BFU-E number (˜9-11-fold) at 5% O2 compared to untreated control cells at ambient oxygen tensions.
Mean fold increase in adult blood BFU-E, CFU-E and CFU-GM progenitor number in the presence of reduced Epo (0.2 U/ml) (n=3) at 20% O2 is shown in FIG. 11 with and without (no addition) the additives used in FIG. 9. Results are expressed relative to control cells at 2 U/ml Epo treated only with the respective vehicles (solid line at fold expansion=1.0). […] As with cord blood, CFU-GM numbers were unaffected by reductions in Epo. The addition of HAo or HEMOLINK™ to CFAs containing 0.2 U/ml Epo stimulated ˜4.5- and ˜3.5-fold increases in BFU-E and CFU-E, respectively, compared to untreated controls (no addition), restoring the progenitor number to that obtained at 2 U/ml Epo. Hemin stimulated the greatest increase in BFU-E and CFU-E (˜9- and ˜6-fold, respectively) at 0.2 U/ml Epo versus the untreated controls (no addition). FeCl3 stimulated only a ˜2-fold increase in erythroid progenitor number at 0.2 U/ml Epo.
Mean fold increase in adult blood BFU-E, CFU-E and CFU-GM progenitor number at 5% O2 in the presence of reduced Epo (0.2 U/ml) (n=3) is shown in FIG. 12 with and without the additives used in FIG. 9. […]

Row | Molecule | growth of erythroid progenitor colonies in the absence of Epo [1] | concentration at which significant stimulation of erythroid progenitor colony formation is observed ([1]; 2 U/ml Epo, ambient O2) [µM] | size and colour of erythroid colonies [1] | fold increase in BFU-E, adult blood, 0.2 U/ml Epo [2] [fold] | number of erythroid colonies at 0.2 U/ml Epo and 5% O2 (in words) ([1]; 5% O2, 0.2 U/ml Epo, 250 μM FeCl3) | fold expansion of erythroid progenitors at 5% O2 (in words) ([1]; 5% O2, 2 U/ml Epo, 250 μM FeCl3) | fold increase in BFU-E, adult blood, ambient O2 ([2]; 2 U/ml Epo, ambient O2, 1.0 mg/ml HAo or HEMOLINK, 100 μM hemin, 250 μM FeCl3, vs vehicle controls) [fold]
1 | HAo: adult human hemoglobin obtained from red blood cells and purified by displacement chromatography; uncross linked product | could not support the growth of erythroid progenitor colonies in the absence of Epo | 7.8 | larger and redder | ~4.5 | – | – | –
2 | HEMOLINK™: chemically crosslinked hemoglobin prepared by treating human hemoglobin with a polyaldehyde (O-raffinose) | could not support the growth of erythroid progenitor colonies in the absence of Epo | – | larger and redder | ~4.5 | – | – | –
3 | [Cl][Fe]([Cl])[Cl] [FeCl3] | – | – | – | – | did not significantly increase the number of erythroid colonies | did not increase the fold expansion of erythroid progenitors beyond that of the untreated controls at 5% O2 | < 3
4 | C=CC1=C(C)C2=Cc3c(C=C)c(C)c4[n]3[Fe-2]35([Cl])[n]6c(c(C)c(CCC(=O)O)c6=CC6=[N+]3C(=C4)C(C)=C6CCC(=O)O)=CC1=[N+]25 [hemin] | could not support the growth of erythroid progenitor colonies in the absence of Epo | – | mostly smaller and less red in color | ~9 | – | – | –

Source: patent publication US20020120098A1, “Enhanced stimulation of erythropoiesis” (priority 1996, published 2002)
